Data as given in publication PMC7316160 (Drug testing and analysis, 2018).
Values joined by “and” are separate entries in the source; they are usually repeats but may differ in a detail not shown here. Identical values can stand only once. Like-named read-outs stand apart in the source and are kept apart here.

Tests used:
[1] = LC-MS/MS quantification in blood/serum of human intoxication cases; type: in vivo
[2] = target: T1, dopamine transporter (DAT) (Rattus norvegicus, UniProt P23977); experiment: Inhibition of [^3H]dopamine uptake at DAT in rat brain synaptosomes; type: biochemical; details: for DAT/SERT ratio (uptake inhibition): [DAT IC50]^−1/[SERT IC50]^−1, higher value indicates greater DAT selectivity
[3] = target: T2, norepinephrine transporter (NET) (Rattus norvegicus, UniProt Q63380); experiment: Inhibition of [^3H]norepinephrine uptake at NET in rat brain synaptosomes; type: biochemical; details: approximate value
[4] = target: T1, dopamine transporter (DAT); experiment: Release of [^3H]MPP+ via DAT from rat brain synaptosomes; type: biochemical; details: for Release of [^3H]MPP+ via DAT EC50: rat brain synaptosomes, mean ± SD, n=3
[5] = target: T2, norepinephrine transporter (NET); experiment: Release of [^3H]MPP+ via NET from rat brain synaptosomes; type: biochemical; details: for Release of [^3H]MPP+ via NET EC50: rat brain synaptosomes, mean ± SD, n=3
5-HT transporter (SERT) = 5-HT transporter (SERT) (Rattus norvegicus, UniProt P31652); experiment: Release of [^3H]5-HT via SERT from rat brain synaptosomes; type: biochemical; details: for Emax: read-out: Release of [^3H]5-HT via SERT %Emax; for Release of [^3H]5-HT via SERT EC50: rat brain synaptosomes, mean ± SD, n=3
[6] = Stability in whole blood on storage; type: physicochemical, human; details: for long-term stability, variation of initial concentration: 90 days; for Stability (% difference): whole blood, n=3
[7] = type: in vivo, human; details: for Potassium: reference 3.3 - 5.1; for aspartame aminotransferase: reference 10 - 40; for alanine aminotransferase: reference 12 - 78; for BUN: reference 15 - 39; for Sodium: reference 136 - 145; for pH: reference 7.35 - 7.45; for HCO3: reference 22 - 26; for pCO2: reference 35 - 45; for Glucose: reference 70 - 100; for pO2: reference 80 - 100; for serum creatinine: reference Male 0.8 - 1.3; for Hb: reference Male 13.2 - 18.0; for Hematocrit: reference Male 39.0 - 51.0; for creatine kinase: reference Male 39 - 308; for base excess: reference −2 - +2
[8] = Case 4, co-exposure alcohol, MDMA and N-ethylnorpentylone
[9] = Inhibition of [^3H]dopamine Uptake at DAT IC50, rat brain synaptosomes (caudate), mean ± SD, n=3

T1 sequence (P23977 whole entry): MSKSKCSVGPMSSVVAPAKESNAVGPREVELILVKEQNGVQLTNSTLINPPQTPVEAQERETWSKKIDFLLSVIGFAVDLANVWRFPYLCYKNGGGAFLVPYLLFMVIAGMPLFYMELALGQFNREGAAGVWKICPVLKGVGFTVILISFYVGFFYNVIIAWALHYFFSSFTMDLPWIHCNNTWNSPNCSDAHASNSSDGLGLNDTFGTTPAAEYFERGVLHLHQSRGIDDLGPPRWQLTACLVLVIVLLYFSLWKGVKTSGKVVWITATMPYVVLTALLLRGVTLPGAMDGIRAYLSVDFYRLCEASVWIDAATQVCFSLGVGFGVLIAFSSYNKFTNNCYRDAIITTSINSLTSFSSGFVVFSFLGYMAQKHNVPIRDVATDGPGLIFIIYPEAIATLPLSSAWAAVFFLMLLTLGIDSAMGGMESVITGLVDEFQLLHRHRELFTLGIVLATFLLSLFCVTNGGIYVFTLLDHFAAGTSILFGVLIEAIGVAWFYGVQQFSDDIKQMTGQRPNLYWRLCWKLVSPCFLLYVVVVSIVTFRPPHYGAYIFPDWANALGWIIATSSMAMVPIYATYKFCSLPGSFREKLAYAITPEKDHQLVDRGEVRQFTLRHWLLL
T2 sequence (Q63380 1-617): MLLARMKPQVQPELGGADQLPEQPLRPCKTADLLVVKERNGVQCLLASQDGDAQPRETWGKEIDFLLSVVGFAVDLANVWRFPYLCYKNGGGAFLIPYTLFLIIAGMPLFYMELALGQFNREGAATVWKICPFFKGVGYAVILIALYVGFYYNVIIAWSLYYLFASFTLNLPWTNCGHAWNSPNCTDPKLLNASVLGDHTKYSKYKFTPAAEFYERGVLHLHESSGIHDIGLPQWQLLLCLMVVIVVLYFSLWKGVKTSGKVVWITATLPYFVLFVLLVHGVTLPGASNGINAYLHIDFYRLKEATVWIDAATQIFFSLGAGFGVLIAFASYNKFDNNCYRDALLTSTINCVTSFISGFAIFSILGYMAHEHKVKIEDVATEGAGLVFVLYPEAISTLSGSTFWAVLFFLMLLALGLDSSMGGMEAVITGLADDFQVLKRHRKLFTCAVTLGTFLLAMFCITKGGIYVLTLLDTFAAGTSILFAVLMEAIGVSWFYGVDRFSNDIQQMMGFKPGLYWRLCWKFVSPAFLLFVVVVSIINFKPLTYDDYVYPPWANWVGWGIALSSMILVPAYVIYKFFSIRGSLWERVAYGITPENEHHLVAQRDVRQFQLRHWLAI
Sequence of 5-HT transporter (SERT) (P31652 whole entry): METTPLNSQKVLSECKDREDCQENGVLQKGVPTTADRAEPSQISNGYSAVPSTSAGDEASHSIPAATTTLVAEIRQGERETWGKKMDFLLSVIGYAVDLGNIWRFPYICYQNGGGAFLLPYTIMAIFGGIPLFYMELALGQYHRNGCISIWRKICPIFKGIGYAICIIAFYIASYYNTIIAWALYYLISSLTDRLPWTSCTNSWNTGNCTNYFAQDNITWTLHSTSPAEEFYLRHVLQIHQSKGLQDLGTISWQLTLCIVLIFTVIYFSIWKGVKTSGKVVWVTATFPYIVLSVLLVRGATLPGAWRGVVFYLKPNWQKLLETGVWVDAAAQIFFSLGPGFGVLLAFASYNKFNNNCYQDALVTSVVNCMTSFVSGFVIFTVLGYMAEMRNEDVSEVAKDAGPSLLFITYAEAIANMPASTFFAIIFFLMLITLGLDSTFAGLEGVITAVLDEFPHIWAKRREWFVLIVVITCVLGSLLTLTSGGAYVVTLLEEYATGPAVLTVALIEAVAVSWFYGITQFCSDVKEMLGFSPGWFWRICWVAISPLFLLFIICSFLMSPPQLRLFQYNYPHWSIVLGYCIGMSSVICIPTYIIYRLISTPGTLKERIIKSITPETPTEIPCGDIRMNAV

`CNC(C)Cc1ccc2c(c1)OCO2` (stereo not drawn) [MDMA, 3,4-methylenedioxymethamphetamine] gave a serum concentration [1, 8] of 54 ng/mL.
For `CNC(C)C(=O)c1ccc2c(c1)OCO2` (stereo not drawn) [Methylone, 3,4-methylenedioxy-N-methylcathinone], the IC50 [2, 9] was 1390 ± 81 nM, the “DAT/SERT ratio (uptake inhibition)” value [2] was 0.83 and 0.8 and the IC50 ([2]; uptake inhibition at DAT IC50, rat brain synaptosomes, approximate value) was ~1000 nM. The IC50 [3] was ~1000 nM, the EC50 [4] was 178 ± 17 nM and the “DAT/SERT ratio (release)” value ([4]; [DAT EC50]^−1/[SERT EC50]^−1, higher value indicates greater DAT selectivity) was 1.9. For the same compound, the Emax ([4]; read-out: Release of [^3H]MPP+ via DAT %Emax) was 96%, the EC50 [5] was 81 ± 8 nM and the Emax ([5]; read-out: Release of [^3H]MPP+ via NET %Emax) was 94%. The EC50 (5-HT transporter (SERT)) was 342 ± 20 nM and the Emax (5-HT transporter (SERT)) was 99%.
With `CCCC(NCC)C(=O)c1ccc2c(c1)OCO2` (stereo not drawn) [N-ethylnorpentylone, 1-(1,3-benzodioxol-5-yl)-2-(ethylamino)pentan-1-one] the IC50 [2, 9] was 37 ± 2 nM, the “DAT/SERT ratio (uptake inhibition)” value [2] was > 10 and the “Release of [^3H]MPP+ via DAT EC50” value [4] was “unable to evoke release”. The “Release of [^3H]MPP+ via DAT EC50” value ([4]; listed as N-EthylNorpentylone) was “inactive”, the “Release of [^3H]MPP+ via DAT EC50” value ([4]; listed as N-Ethylnorpentylone) was “no transporter releasing activity” and the “Release of [^3H]MPP+ via NET EC50” value [5] was “unable to evoke release”. For the same compound, the “Release of [^3H]MPP+ via NET EC50” value ([5]; listed as N-EthylNorpentylone) was “inactive”, the “Release of [^3H]MPP+ via NET EC50” value ([5]; listed as N-Ethylnorpentylone) was “no transporter releasing activity” and the “Release of [^3H]5-HT via SERT EC50” value (5-HT transporter (SERT)) was “unable to evoke release”. For the same compound, the “Release of [^3H]5-HT via SERT EC50” value (5-HT transporter (SERT); listed as N-EthylNorpentylone) was “inactive”, the “Release of [^3H]5-HT via SERT EC50” value (5-HT transporter (SERT); listed as N-Ethylnorpentylone) was “no transporter releasing activity” and the “long-term stability, variation of initial concentration” value (“long-term stability, variation” for short) ([6]; fortified whole blood, both QC concentrations, 4 °C) was −3.5%. For the same compound, the “long-term stability, variation” value ([6]; fortified whole blood, both QC concentrations, −20 °C) was “+6.5%”, the “long-term stability, variation” value ([6]; post mortem blood sample, 4 °C) was −19.7% and the “long-term stability, variation” value ([6]; post mortem blood sample, −20 °C) was −5.5%. The “Stability (% difference)” value ([6]; High QC (400 ng/mL), 3 freeze-thaw cycles) was −3.0%, the “Stability (% difference)” value ([6]; High QC (400 ng/mL), 4 °C, 24h) was 7.1% and the “Stability (% difference)” value ([6]; High QC (400 ng/mL), 4 °C, 72h) was 5.9%. The “Stability (% difference)” value ([6]; High QC (400 ng/mL), −20 °C, 24h) was −3.3%, the “Stability (% difference)” value ([6]; High QC (400 ng/mL), −20 °C, 72h) was −2.9% and the “Stability (% difference)” value ([6]; Low QC (15 ng/mL), 3 freeze-thaw cycles) was −11.8%. The “Stability (% difference)” value ([6]; Low QC (15 ng/mL), 4 °C, 24h) was −2.4%, the “Stability (% difference)” value ([6]; Low QC (15 ng/mL), 4 °C, 72h) was −4.9% and the “Stability (% difference)” value ([6]; Low QC (15 ng/mL), −20 °C, 24h) was −1.8%. For the same compound, the “Stability (% difference)” value ([6]; Low QC (15 ng/mL), −20 °C, 72h) was −12.6%, the “post mortem whole blood concentration” value ([1]; Case 1, fatal, only psychoactive analyte detected) was 170 ng/mL and the serum concentration ([1]; Case 2, recovered by 12 h) was 7 ng/mL. For the same compound, the serum concentration [1, 8] was 19 ng/mL, the serum concentration ([1]; Case 5, coma, cerebrovascular hemorrhage) was 149 ng/mL and the serum concentration ([1]; Case 6, psychosis) was 61 ng/mL. The “symptoms of intoxicated subjects” value ([7]; 6 human cases) was “palpitations, tachycardia, agitation, aggression, hallucinations, coma and, in one case, death”, the “heart rate (tachycardia)” value ([7]; Case 2, at ED) was 176 bpm and the Potassium ([7]; Case 3) was 3.6 mEq/L. For the same compound, the aspartame aminotransferase ([7]; Case 3) was 93 U/L, the alanine aminotransferase ([7]; Case 3) was 35 U/L and the BUN ([7]; Case 3) was 14 mg/dL. The Sodium ([7]; Case 3) was 140 mEq/L, the phosphatase alkaline ([7]; Case 3, reference Adult 50 - 136) was 53 U/L and the blood pressure ([7]; Case 4, described as normal) was 123/89. For the same compound, the Potassium ([7]; Case 4) was 3.4 mEq/L, the “creatine kinase MB isoenzyme” value ([7]; Case 4, reference 7 - 25) was 21 U/L and the pH ([7]; Case 4) was 7.46. The aspartame aminotransferase ([7]; Case 4) was 40 U/L, the alanine aminotransferase ([7]; Case 4) was 25 U/L and the BUN ([7]; Case 4) was 14 mg/dL. For the same compound, the HCO3 ([7]; Case 4) was 20.5 mmol/L, the pCO2 ([7]; Case 4) was 29.4 mmHg and the Glucose ([7]; Case 4) was 104 mg/dL. The pO2 ([7]; Case 4) was 72.5 mmHg, the Sodium ([7]; Case 4) was 137 mEq/L and the serum creatinine ([7]; Case 4) was 0.9 mg/dL. For the same compound, the Hb ([7]; Case 4) was 15.5 g/dL, the Hematocrit ([7]; Case 4) was 43.0% and the creatine kinase ([7]; Case 4) was 605 U/L. For the same compound, the base excess ([7]; Case 4) was -1.6 mmol/L, the “Glasgow score (neurological depression)” value ([7]; Case 5) was 5 and the Lactate ([7]; Case 5, reference 0.5 - 1.6) was 11.0 mmol/L. The Magnesium ([7]; Case 5, reference 1.6 - 2.4) was 1.6 mg/dL, the Potassium ([7]; Case 5) was 3.7 mEq/L and the pH ([7]; Case 5) was 7.41. It also gave a BUN ([7]; Case 5) of 28 mg/dL, an HCO3 ([7]; Case 5) of 19 mmol/L and a pCO2 ([7]; Case 5) of 31 mmHg. For the same compound, the pO2 ([7]; Case 5) was 86 mmHg, the Sodium ([7]; Case 5) was 137 mEq/L and the serum creatinine ([7]; Case 5) was 0.7 mg/dL. The Hb ([7]; Case 5) was 13.0 g/dL, the Hematocrit ([7]; Case 5) was 43.0% and the creatine kinase ([7]; Case 5) was 1,260 U/L. For the same compound, the base excess ([7]; Case 5) was -3.8 mmol/L, the Potassium ([7]; Case 6) was 3.8 mEq/L and the aspartame aminotransferase ([7]; Case 6) was 24 U/L. For the same compound, the alanine aminotransferase ([7]; Case 6) was 27 U/L, the BUN ([7]; Case 6) was 31 mg/dL and the Glucose ([7]; Case 6) was 101 mg/dL. For the same compound, the Sodium ([7]; Case 6) was 137 mEq/L, the serum creatinine ([7]; Case 6) was 0.7 mg/dL and the Hb ([7]; Case 6) was 13.0 g/dL. The Hematocrit ([7]; Case 6) was 39.9% and the creatine kinase ([7]; Case 6) was 713 U/L.
With `CCCC(NC)C(=O)c1ccc2c(c1)OCO2` (stereo not drawn) [Pentylone, 1-(1,3-benzodioxol-5-yl)-2-(methylamino)pentan-1-one] the IC50 [2, 9] was 154 ± 11 nM, the “DAT/SERT ratio (uptake inhibition)” value [2] was 7.8 and the “Release of [^3H]MPP+ via DAT EC50” value [4] was “inactive”. The “Release of [^3H]MPP+ via NET EC50” value [5] was “Inactive”, the EC50 (5-HT transporter (SERT)) was 476 ± 98 nM and the Emax (5-HT transporter (SERT)) was 54%.
For `CCO` [alcohol], the serum concentration ([1]; Case 4) was 800000 ng/mL.
